Where two headings read alike, the source gives them in different places.
What was measured:
MMP-2 = MMP-2 release during 59M-induced TCIPA by zymography; type: cell-based, human; settings: 300 uM, P>0.05
Method: Sample collection was carried out as previously described (Jurasz et al., 2001; Medina et al., 2006). Briefly, platelets at a concentration of 2.5×10^8/ml were placed into lumi-aggregometer and tumor cells (59M) were added at 1×10^3/ml. When platelet aggregation reached 50% maximal light transmission the reaction was terminated and samples were collected. The samples were then centrifuged at 900×g at room temperature for 10 min. After centrifugation, platelet releasates were collected and stored at −80 C until assayed for the presence of MMP activity by zymography.
Gelatin zymography was used to detect the activity of MMP-2 in the releasates as previously described (Alonso-Escolano et al., 2004; Jurasz et al., 2001; Medina et al., 2006). Briefly, samples were subjected to 10% sodium dodecyl sulfate-polyacrylamide gel electrophoresis (SDS-PAGE) with copolymerized gelatin (0.2%; Sigma Chemical Co, St. Louis, Mo.) incorporated as a substrate for gelatinolytic proteases. […] The gelatinolytic activities were detected as transparent bands against the background of Coomassie blue-stained gelatin. The intensities of the separate bands were analyzed and quantified using ChemiDoc XRS System (Bio-Rad, Hercules, Calif., U.S.A.). The gelatinolytic activity of each band was expressed as arbitrary units of density/mg protein.

washed platelet samples [1] = test: Collagen-induced platelet aggregation in the TCIPA studies (washed platelets); type: cell-based, human; settings: Homo sapiens, Platelet; aspirin 300 μM, n=4
[2] = GI tolerability testing: gastric ulcerogenic effect in rats; type: in vivo; settings: rat, aspirin 30 mg/Kg daily or molar equivalent doses, oral gavage, 3 days
Method: In this study, rats are fed Aspirin 30 mg/Kg daily or molar equivalent doses of ISAS, ISANA (“Nicotinate”), ISANO “Meta” nitrate or ISAMNA in oral gavage daily for 3 days (n=3 per group). At the end of the dosing period, all animals were sacrificed, stomachs removed and were immersed in 2% formalin for at least 10 min to fix the gastric tissue wall, and will opened along the greater curvature for scoring for irritation or hemorrhagic lesions or ulcers developed in the corpus mucosa under a dissecting microscope on a 5-point scale. The percentage of stomach surface area showing ulcers was recorded for each animal and expressed as a percentage.

[3] = test system: platelet rich plasma (PRP); test: U46619-induced platelet aggregation in PRP; type: cell-based, human
Method: Platelet aggregation was measured by light aggregometry. […] Aggregation was initiated by the addition of agonists, and monitored by Aggro-Link software for at least 6 min.

washed platelet samples [4] = test: Arachidonic acid-induced platelet aggregation; type: cell-based, human; settings: n=4
[5] = test system: platelet rich plasma (PRP); test: Collagen-induced platelet aggregation in platelet rich plasma (light aggregometry); type: cell-based; settings: Homo sapiens, collagen (5 µg/mL), values without †, read-out: IC50 (PRP, 95% CI)
[6] = test system: platelet rich plasma (PRP); settings: values marked † From Reference 7, read-out: IC50 (PRP, 95% CI); cited from earlier work
CaCo2 cells = test: Tumour cell-induced platelet aggregation (TCIPA), static conditions, Caco-2
Method: Three human tumor cell lines, 59M ovarian adenocarcinoma, Caco-2 colon adenocarcinoma and HT1080 fibrocarcinoma cells, were obtained from the European Cell Culture Collection. Cell lines were cultured as monolayers in 75 ml culture flasks at 37° C. in a humidified atmosphere with 5% CO2. 59M cells and HT1080 were cultured in Dulbecco's […] (DMEM) supplemented with 10% fetal bovine serum (FBS) and gentamycin (0.05 mg/ml), penicillin (0.06 mg/ml), and streptomycin (0.01 mg/ml). Caco-2 cell line was cultured in Minimum Essential Medium (MEM) supplemented with 20% FBS and the same antibiotics as above. The cells were supplied with fresh medium and subcultured three times each week.
Washed platelet suspensions (2.5×10^11 platelets 1^−1) were prepared from blood an mixed with the anticoagulant sodium citrate (0.315% final concentration).
The interactions between platelets and tumor cells were measured by light aggregometry (Alonso-Escolano et al., 2004; Jurasz et al., 2001b; Radomski et al., 1991). […] TCIPA was initiated by the addition of cancer cells, and monitored by Aggro-Link software for at least 30 min. […]
To study whether or not aspirin prodrugs had any direct effect on tumour cells, nictoinate was preincubated with different cell lines and added to the platelet suspension. TCIPA was monitored for at least 30 min.

| SMILES | release of pro-MMP-2 during platelet aggregation induced by 59M cells (MMP-2) | inhibition at 300 µM (washed platelet samples [1]) [%] | gastric ulcerogenic effect [2] | inhibitory effect on platelet aggregation induced by U46619 [3] | effect on arachidonic acid (100 μM)-induced aggregation (washed platelet samples [4]) | IC50 [5] [µM] | IC50 [6] [µM] | effect on TCIPA when tumour cells were preincubated with compound (CaCo2 cells; Caco2 cells preincubated) | inhibition of TCIPA induced by Caco-2 (CaCo2 cells; static, WP, 300 and 500 μM, CaCo2 1.5×10^3/ml) |
| --- | --- | --- | --- | --- | --- | --- | --- | --- | --- |
| CC(=O)Oc1ccccc1C(=O)O [Aspirin] | failed to prevent | 56 ± 7 | significant gastric ulcerogenic effect | Neither aspirin nor the aspirin prodrugs had any inhibitory effect | abolished | 90 | 92 |  |  |
| CC(=O)Oc1ccccc1C(=O)O[C@H]1CO[C@H]2[C@@H]1OC[C@H]2OC(=O)c1cccnc1 [ST0702, isosorbide-2-aspirinate-5-nicotinate] |  |  |  |  |  |  |  | no effect on TCIPA | consistently inhibited TCIPA |

Source: patent publication US9670223B2, “Compounds with super-aspirin effects” (SOLVOTRIN THERAPEUTICS LTD., priority 2011, dated 2017)
